Laboratory results published in patent publication US20040248918A1, “N-phenyl-2-pyrimidine-amine derivatives and process for the preparation thereof” (IL YANG PHARM. CO., LTD., priority 2003, published 2004).
Like-named read-outs stand apart in the source and are kept apart here.

Tests used:
Format in all cases: cell-based
[1] = system: cervical cancer cell of HeLa229; experiment: Growth inhibition of HeLa 229 (MTT); conditions: for IC50: Homo sapiens, read-out: IC50
[2] = system: breast cancer cell (MCF-7); experiment: Growth inhibition of MCF-7 (MTT); parameters: IC50 as fraction of that of Imatinib mesylate: unit not given beside the values; conditions: for IC50: Homo sapiens, MCF7
Procedure: (§1) In the present experiment, the inhibitory activity of the compound of formula (1) was determined against the growth of K562 cancer cell. First, the cells were allowed to stand in RPMI (Roswell Park Memorial Institute)-1640 medium containing 10% (v/v) fetal bovine serum in an incubator of 37° C. and 5% by volume of CO2. The cancer cells (1000 cells) were transferred to a 96-well plate, and the test compound was diluted. The plate was allowed to stand under the above mentioned conditions for 2 days. After this treatment, to the cells was added 0.2% MTT (3-[4,5-dimethylthiazol-2-yl]-2,5-diphenyltetrazolium bromide) solution, and the resulting mixture was allowed to stand under the constant temperature-condition for 4 hours. The supernatant was removed to leave the resulting crystal. DMSO was added to dissolve the crystal, and the absorbance of the solution was measured at 540 nm. IC50 value was calculated using a computer system according to the following formula: […]
(§2) The test was performed according to the same procedure as Experiment 1.

[3] = system: oral epithelial cancer cell (KB); experiment: Growth inhibition of KB (MTT); parameters: IC50 as fraction of that of Imatinib mesylate: unit not given beside the values; conditions: for IC50: Homo sapiens
Procedure: as §1, §2

[4] = system: L1210 cancer cell (leukemia cell line); experiment: Growth inhibition of L1210 cancer cell (MTT); conditions: Mus musculus
Procedure: as §1
In the present experiment, the inhibitory activity of the compound of formula (1) was determined against the growth of L1210 cancer cell. The test was performed according to the same procedure as Experiment 1.

[5] = system: hematologic malignancy cell (HL-60); experiment: Growth inhibition of HL-60 (MTT); parameters: IC50 as fraction of that of Imatinib mesylate: unit not given beside the values; conditions: for IC50: Homo sapiens
[6] = system: gastric cancer cell (KATO III); experiment: Growth inhibition of KATO III (MTT); parameters: IC50 as fraction of that of Imatinib mesylate: unit not given beside the values; conditions: for IC50: Homo sapiens
Procedure: as §1, §2

[7] = system: ovarian cancer cell (SK-OV-03); experiment: Growth inhibition of SK-OV-03 (MTT); parameters: IC50 as fraction of that of Imatinib mesylate: unit not given beside the values
Procedure: as §1, §2

[8] = system: acute myelogenous leukemia cell (KG-1); experiment: Growth inhibition of KG-1 (MTT); conditions: for IC50: Homo sapiens
[9] = system: colon cancer cell of SNU-C1; experiment: Growth inhibition of SNU-C1 (MTT); conditions: for IC50: Homo sapiens, read-out: IC50
[10] = system: rectal cancer cell of CMT-93; experiment: Growth inhibition of CMT-93 (MTT); conditions: for IC50: CMT93, read-out: IC50
Procedure: as §1, §2

lung cancer cell (A549) = experiment: Growth inhibition of A549 (MTT); parameters: IC50 as fraction of that of Imatinib mesylate: unit not given beside the values; conditions: for IC50: Homo sapiens
Procedure: as §1, §2

hepatoma cell (SNU-182) = experiment: Growth inhibition of SNU-182 (MTT); parameters: IC50 as fraction of that of Imatinib mesylate: unit not given beside the values; conditions: for IC50: Homo sapiens
Procedure: as §1, §2

[11] = system: K562 cancer cell (CML cell line); experiment: Growth inhibition of K562 cancer cell (MTT); conditions: for IC50: K562, 2 days, MTT; for Improved activity versus Imatinib mesylate: K562
Procedure: In the present experiment, the inhibitory activity of the compound of formula (1) was determined against the growth of K562 cancer cell. First, the cells were allowed to stand in RPMI (Roswell Park Memorial Institute)-1640 medium containing 10% (v/v) fetal bovine serum in an incubator of 37° C. and 5% by volume of CO2. The cancer cells (1000 cells) were transferred to a 96-well plate, and the test compound was diluted. The plate was allowed to stand under the above mentioned conditions for 2 days. […] The supernatant was removed to leave the resulting crystal.

[12] = system: pancreatic cancer cell of PANC-1; experiment: Growth inhibition of PANC-1 (MTT); conditions: for IC50: Homo sapiens, read-out: IC50
[13] = system: U937 cancer cell (monocyte like leukemia cell line); experiment: Growth inhibition of U937 cancer cell (MTT); conditions: for IC50: Homo sapiens, U-937
Procedure: as §1
In the present experiment, the inhibitory activity of the compound of formula (1) was determined against the growth of U937 cancer cell. The test was performed according to the same procedure as Experiment 1.

[14] = system: encephalophyma cell of A172; experiment: Growth inhibition of A172 (MTT); conditions: for IC50: Homo sapiens, A 172, read-out: IC50
Procedure: as §1, §2

[15] = system: bladder cancer cell of HT-1197; experiment: Growth inhibition of HT-1197 (MTT); conditions: for IC50: Homo sapiens, HT1197, read-out: IC50
Procedure: as §1, §2

[16] = system: prostatic cancer cell (DU-145); experiment: Growth inhibition of DU-145 (MTT); parameters: IC50 as fraction of that of Imatinib mesylate: unit not given beside the values; conditions: for IC50: Homo sapiens
Procedure: as §1, §2

[17] = Homo sapiens, K562, 48 h, read-out: IC50

Row | SMILES | IC50 [1] | IC50 [2] | IC50 [3] | IC50 [4] | IC50 [5] | IC50 [6] | IC50 [7] | IC50 [8] | Improved activity versus 5-Fu [9] | Improved activity versus Imatinib mesylate [9] | Improved activity versus cisplatin [9] | IC50 [9] | IC50 [10] | IC50 (lung cancer cell (A549)) | IC50 (hepatoma cell (SNU-182)) | IC50 [11, 17] | Improved activity versus 5-Fu [12] | IC50 [12] | IC50 [13] | IC50 [14] | also measured
1 | CN1CCCN(Cc2ccc(C(=O)Nc3ccc(Nc4nccc(-c5cccnc5)n4)cc3)cc2)CC1.CS(=O)(=O)O [Example 10, 4-(4-methylhomopiperazin-1-ylmethyl)-N-[4-(4-(pyridin-3-yl)pyrimidin-2-yl)aminophenyl]benzamide methanesulfonate] | 5.5 µg/mL | 6.96 µg/mL | 8.99 µg/mL | 3.4 µg/mL | 4.28 µg/mL | 3.26 µg/mL | 25.5 µg/mL | 3.31 µg/mL | > 80 times | more than 25 times | more than 250 times | 1.2 µg/mL | 4.04 µg/mL | 3.5 µg/mL | 7.94 µg/mL | 3.85 µg/mL | > 120 times | 4.62 µg/mL | 7.3 µg/mL | 5.5 µg/mL | Improved activity versus Imatinib mesylate [1]: more than 8 times; IC50 as fraction of that of Imatinib mesylate [2]: 1/7; IC50 as fraction of that of Imatinib mesylate [3]: 1/5; IC50 as fraction of that of Imatinib mesylate [5]: 1/8; IC50 as fraction of that of Imatinib mesylate [6]: 1/10; IC50 as fraction of that of Imatinib mesylate [7]: 1/2; IC50 as fraction of that of Imatinib mesylate [8]: 1/10; Improved activity versus Imatinib mesylate [10]: > 1.5 times; IC50 as fraction of that of Imatinib mesylate (lung cancer cell (A549)): 1/10; IC50 as fraction of that of Imatinib mesylate (hepatoma cell (SNU-182)): 1/5; Improved activity versus Imatinib mesylate [12]: more than 10 times; Improved activity versus cisplatin [12]: more than 9 times; Improved activity versus 5-Fu [14]: more than 18 times; Improved activity versus Imatinib mesylate [14]: more than 8 times; Improved activity versus 5-Fu [15]: > 55 times; Improved activity versus Imatinib mesylate [15]: > 32 times; Improved activity versus cisplatin [15]: more than 4.4 times; IC50 [15]: 1.7 µg/mL; IC50 as fraction of that of Imatinib mesylate [16]: 1/2; IC50 [16]: 5.51 µg/mL
2 | CS(=O)(=O)O.Cc1ccc(NC(=O)c2ccc(CNN3CCN(C)CC3)cc2)cc1Nc1nccc(-c2cccnc2)n1 [Example 4, 4-(4-methylpiperazin-1-ylaminomethyl)-N-[4-methyl-3-(4-(pyridin-3-yl)pyrimidin-2-yl)aminophenyl]benzamide methanesulfonate] | 48.5 µg/mL | > 50 µg/mL | 35 µg/mL | 26.9 µg/mL | 27.8 µg/mL | 32.4 µg/mL | > 50 µg/mL | > 50 µg/mL | 9 times | 3 times | 30 times | 10 µg/mL | 8.39 µg/mL | 46.6 µg/mL | 48 µg/mL | ≤ 0.1 µg/mL | 10 times | 53.8 µg/mL | 0.9 µg/mL | 39.3 µg/mL | IC50 ([11]; methanesulfonate): <0.10 µg/mL; Improved activity versus Imatinib mesylate ([11]; listed as example 4, methanesulfonate): 5 times; Improved activity versus Imatinib mesylate ([11]; methanesulfonate): ≥ 5 times; Improved activity versus Imatinib mesylate [13]: 30 times; IC50 [15]: 50.1 µg/mL; IC50 [16]: 41.3 µg/mL
